Columns and labels:
[1] = system: patient suffering from ADHD; test: Case Study 2: lacosamide mono-therapy in a person with ADHD; assay type: in vivo, human; details: mono-therapy for several weeks
Experimental: We conducted a second case study to validate earlier results of Case Study 1. The patient was a person suffering from ADHD (with no comorbidity such as epilepsy or bipolar disorder). The patient was treated with a lacosamide mono-therapy for several weeks based on the conventional treatment regime for lacosamide (for the treatment of epilepsy and/or bipolar disorder) for subjects weighting 50 kg or more.

[2] = system: children and adolescents with ADHD syndrome; test: Case Study 3: 'PASA' clinical questionnaire (Thinking, Mood, Sleep, Alterity); assay type: in vivo, human
Experimental: This study describes a series of cases of 12 children and adolescents (aged between 7 and 17 year old) treated with lacosamide. The patients were from 3 different orphanages and under the general supervision of a tutor.
We administrated doses adjusted to age and weight of each patient, in line with the therapeutic doses described herein. Specifically, lacosamide was administered to the patients following the approved treatment regimen for lacosamide (Vimpat®) in epileptic children from 4 years of age as per Table 1 above. The patients were at constant supervision of the tutor and other personnel of the orphanages.
After being selected by the tutors, children were evaluated during a clinical consultation carried out in their own institution. Through this consultation, we verified the clinical condition of each child or adolescent, their records and anamnesis, if any. We also filled out the Clinical story forms. At the same time, we performed the first ‘PASA’ Evaluation. The ‘PASA’ Test is a clinical questionnaire that was developed by the inventor of the present application (see FIG. 1 for questionnaire questions). It includes examination of Thinking (“P” for “Pensamiento”), Mood (“A” for “Animo”), Sleep (“S” for “Sueno”) and Alterity (“A” for “Alteridad”).
‘PASA’ Evaluation was repeated every 60 days after initiating the medication. The four editions of this questionnaire were compared and analysed, drawing a close-up portrait of the clinical evolution of these cases.
The overall trend is very favourable in all cases. Patients' symptoms improved in all categories. In this study, the patients were evaluated before treatment with lacosamide (evaluation 1) and every 2 months in the course of the treatment.

[3] = system: children and adolescents with ADHD syndrome; test: Case Study 3: Wisconsin Card Sorting Test (WCST) Reasoning; assay type: in vivo, human; details: second evaluation
Experimental: These tests offered an objective element that contributed to the establishment of the diagnosis.
Neuropsychological evaluation was repeated after six months on medication, at the end of the study. These evaluations were guided by trained neuropsychologists. Four different evaluations were conducted: Continuous Performance Test (CPT)1, STROOP-P test, Wisconsin Card sorting Test and the Non Verbal Intelligence Test.
The patients were assessed using the Wisconsin Card Sorting Test (WCST), which is used to measure higher-level cognitive processes, such as attention, perseverance, abstract thinking, and set shifting. It is particularly used in clinical fields to measure perseverative behaviours that refer to an individual's insistence on wrong behaviour.

[4] = system: children and adolescents with ADHD syndrome; test: Case Study 3: pedagogical evaluation (literary and mathematical skills); assay type: in vivo, human
Experimental: In order to evaluate the academic level of the patients and later evolution while being treated, we established indicators of literary and mathematical skills of the patients in line with the official assessment of the Ministry of Education of the Dominican Republic.
Academic evolution was assessed 90 days after initiating the treatment and at the end of the 6th month.
In order to measure academic evolution we used different parameters, which are: Spanish language, Reading, Writing, Comprehension of their own reading, Mathematics, Reasoning, argumentation capacities and Problem solving.
Independently, we established at each evaluation the attained level of alphabetisation and the acquisition of literary skills every patient had, as shown in Table 3.
We categorised the sample following the protocol of the local Ministry of Education's Evaluation tool, which will qualify students following the consideration of “Non Acquired”, “Towards Acquisition” or “Acquired” levels.

[5] = system: potassium or calcium currents; details: cited from earlier work
[6] = after treatment, ~75% at the beginning
[7] = end of the study, 17% prior to treatment

Structure (SMILES): COC[C@@H](NC(C)=O)C(=O)NCc1ccccc1 [lacosamide, (2R)-2-(acetylamino)-N-benzyl-3-methoxypropanamide]
- ADHD symptomatology [1]: slowly regressed
- cognitive functionality [1]: significant improvement
- Mood and Sleep symptoms in most patients ([2]; 12 patients, 6 months): complete or nearly complete alleviation of the symptoms
- all tested 'PASA' categories (Sleep Activity, Thoughts, Mood) ([2]; 12 patients, 6 months): positive impact
- patients with depressive unjustified feelings ([2]; after six months of treatment, from 25%): 0%
- patients with irritability ([2]; after treatment, from 33.3%): 16.7%
- patients with cenesthesia [2, 6]: 8.3%
- patients with hyper emotion [2, 6]: 25%
- patients with hypomania [2, 6]: 16.7%
- patients with lethargy [2, 6]: 8.3%
- patients with mood change [2, 6]: 0%
- patients with tiredness [2, 6]: 8.3%
- Trend of Thought: Disordered ([2]; end of study (6 months), 67% of 12 patients before treatment): completely disappeared
- Trend of Thought: Overabundant ([2]; end of study (6 months), 83% of 12 patients before treatment): completely disappeared
- distressing thoughts ([2]; end of study, 17% of patients at the beginning): completely eliminated
- patients with difficulties with falling asleep ([2]; end of study, from 75%): 0%
- patients with sleep interruption ([2]; end of study, from 83%): 8.3%
- patients with sudden off-sense disconnections (spacing out) ([2]; end of study, initially 50%): 33%
- patients with dysphasia (inability of sustaining attention or understanding a long phrase) ([2]; end of study, initially 83%): 42%
- patients with second thoughts disturbing concentration ([2]; end of study, initially 83%): 42%
- patients with cenesthesic presences (sleep) ([2]; end of the trial period, from 75%): 8.3%
- general state after waking up, sleeping without interruptions and ease of sleep ([2]; four evaluations over 6 months): improvement
- realistic dreams ([2]; four evaluations over 6 months): not significantly affected
- patients with blocking thoughts ([2]; in the course of treatment, 50% at the beginning): 25%
- Hypercritical thinking ([2]; over the course of the study): small improvement
- Tachypsychia ([2]; over the course of the study): small improvement
- patients in Severe Deterioration category, WCST Reasoning ([3]; 50% in the first evaluation): 25%
- patients in the 3 highest categories, WCST Reasoning ([3]; from 41.7%): 58.3%
- pedagogic evaluation, all tested competencies ([4]; 6-month treatment, tests pre-treatment, after 3 and 6 months): gradual progression
- patients who completely acquired Reasoning and Solving Problems (Mathematics) ([4]; after 3 months of treatment, initial 25%): 50%
- subjects at the intermediate level, Towards Acquisition ([4]; end of the study): 25%
- change in patients who acquired the reading and writing skills ([4]; end of the study versus first evaluation): +60%
- patients able to understand what they were reading (Comprehensive Reading) [4, 7]: 83%
- patients who completely acquired the reading and writing skills [4, 7]: 75%
- subjects at the non-acquired level (Read, Write, Comprehensive Reading) ([4]; end of the study, 83% prior to treatment): 0%
- proportion of the sample Alphabetised (alphabetical level) ([4]; maintained until the end of the study, 25% at the beginning): 75%
- block of potassium or calcium currents [5]: does not block
